Measurements reported in US20070135375A1, “Sulfamoyl sulfonate prodrugs” (priority 2005, published 2007).
Where two headings read alike, the source gives them in different places.

Tests used:
[1] = Stability in simulated gastric juice (NaCl solution with pepsin, pH~1.2), HPLC; assay type: physicochemical; settings: 30 min, 37° C., column head pH = 1, cells note pH = 1.2 (gastric juice)
Method: (§1) The quantification took place through HPLC (HPLC column: Xterra MS C18 2.5 μm 4.6×30 mm). Based on the test substances to be measured, the following gradient system was used for the HPLC: • Acidic gradient: A: water/0.01% trifluoroacetic acid, B: acetonitrile/0.01% trifluoroacetic acid—0 min 5% B, 0-3 min 65% B, 3-5 min 65% B, 5-6 min 5% B • Alkaline gradient: A: water/0.025% ammonia, B: acetonitrile/0.025% ammonia—0 min 20% B, 0-3 min 80% B, 3-5 min 80% B, 5-6 min 20% B. The quantification took place after 1 and 2 hours and after 24 hours. Stability in Simulated Gastric Juice:
Solutions of the compounds according to the invention were incubated at 37° C. in simulated gastric juice (aqueous NaCl solution with pepsin, pH˜1.2).
The quantification took place through HPLC (HPLC-column: Xterra MS C18 2.5 μm 4.6×30 mm) using the gradient system: […]
A: water/0.01% trifluoroacetic acid, B: acetonitrile/0.01% trifluoroacetic acid—0 min 5% B, 0-3 min 65% B, 3-5 min 65% B, 5-6 min 5% B.
The quantification took place after 0.5, 1, 1.5 and 2 hours.

[2] = Solubility in water (kinetic nephelometry / thermodynamic HPLC); assay type: physicochemical; settings: for solubility: 25 °C, aqueous buffer
Method: The compounds according to the invention were measured as 10 mmol DMSO solution in a 0.01 M phosphate buffer solution at pH 7.4 and 25° C. with nephelometry and turbidity.
While in a turbid state, the solution to be tested was added drop by drop to the buffer solution until a precipitate settled.
The precipitate was detected in a dilution series (compounds in a phosphate buffer solution according to the invention) by nephelometry.
b.) Thermodynamic Measurement:
The compounds in solid form according to the invention were added to an excess of an aqueous buffer system of various pH values. It was stirred 24 hours at 25° C. After centrifuging, the solution was examined with HPLC (HPLC: column: Xterra MS C18 2.5 μm, 30×4.6 mm).

[3] = Hydrolysis in aqueous buffer of various pH values at 37° C., HPLC; assay type: physicochemical
Method: The compounds according to the invention were measured as a DMSO solution in an aqueous buffer of various pH values at 37° C.
as §1, with “hours.” for “hours. Stability in Simulated Gastric Juice:”

[4] = molecular target: human carbonic anhydrase I (Homo sapiens, UniProt P00915); assay: Carbonic anhydrase inhibition, photometric, nitrophenyl acetate conversion (CA I); assay type: biochemical
Excerpt: (§2) Photometric determination of the inhibition of human carbonic anhydrase I or II with sulfonamides or sulfamates on microtiter plates with the aid of enzymatic conversion of nitrophenyl acetate with a color change from colorless to yellow.

[5] = molecular target: human carbonic anhydrase II (Homo sapiens, UniProt P00918); assay: Carbonic anhydrase inhibition, photometric, nitrophenyl acetate conversion (CA II); assay type: biochemical
Excerpt: as §2

[6] = human carbonic anhydrase I, read-out: CA I IC50
[7] = human carbonic anhydrase II, read-out: CA II IC50

Chain of human carbonic anhydrase I (P00915 whole entry): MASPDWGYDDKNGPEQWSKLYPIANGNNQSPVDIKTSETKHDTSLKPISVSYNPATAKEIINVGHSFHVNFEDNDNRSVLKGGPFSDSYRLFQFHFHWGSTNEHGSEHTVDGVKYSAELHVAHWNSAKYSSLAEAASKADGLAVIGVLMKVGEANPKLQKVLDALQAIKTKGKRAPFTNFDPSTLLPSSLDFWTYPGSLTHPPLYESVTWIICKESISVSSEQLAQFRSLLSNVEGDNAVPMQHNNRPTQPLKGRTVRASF

Compound: CCC(=O)O[C@H]1CC[C@H]2[C@@H]3CCC4=CC(=O)CC[C@]4(C)[C@H]3CC[C@]12C [Testosterone Propionate, 3-Oxoandrost-4-en-17β-yl n-propionate, reference compound]
- Decomposition in % [1]: 0%
- Solubility in Water (in words) [2]: insoluble
- Decomposition in % ([3]; pH = 1, 37° C., 1 h): 0%
- Decomposition in % ([3]; pH = 1, 37° C., 2 h): 0%
- Decomposition in % ([3]; pH = 1, 37° C., 24 h): 0%
- Decomposition in % ([3]; pH = 7.4, 37° C., 1 h): 0%
- Decomposition in % ([3]; pH = 7.4, 37° C., 2 h): 0%
- Decomposition in % ([3]; pH = 7.4, 37° C., 24 h): 0%

Compound: C[C@]12CC[C@H]3[C@@H](CCC4=CC(=O)CC[C@@]43C)[C@@H]1CC[C@@H]2OS(=O)(=O)c1cccc(S(N)(=O)=O)c1 [3-Oxo-androst-4-en-17β-yl 3′-sulfamoylphenyl Sulfonate]
- Decomposition in % [1]: 3%
- IC50 [4]: 2300 nM
- solubility [2]: 5 µg/mL
- Decomposition in % ([3]; pH = 1, 37° C., 1 h): 6%
- Decomposition in % ([3]; pH = 1, 37° C., 2 h): 11%
- Decomposition in % ([3]; pH = 1, 37° C., 24 h): 78%
- Decomposition in % ([3]; pH = 7.4, 37° C., 1 h): 6%
- Decomposition in % ([3]; pH = 7.4, 37° C., 2 h): 12%
- Decomposition in % ([3]; pH = 7.4, 37° C., 24 h): 75%
- IC50 [5]: 120 nM

Compound: C[C@]12CC[C@@H]3c4ccc(OS(N)(=O)=O)cc4CC[C@H]3[C@@H]1CC[C@@H]2O [Estradiol-3-sulfamat, Estradiol-3-sulfamate, reference compound]
- IC50 [4, 6]: 157 ± 10.6 nM
- IC50 [5, 7]: 34 nM

Compound: Zidovudine-sulfamoylphenyl Sulfonate [Zidovudinsulfonat]
- IC50 [4, 6]: 2900 nM
- IC50 [5, 7]: 1100 nM

Compound: C[C@@H]1CC2=CC(=O)CC[C@]2(C)[C@H]2CC[C@]3(C)[C@@H](OS(=O)(=O)c4cccc(S(N)(=O)=O)c4)CC[C@H]3[C@H]12 [3-oxo-7α-methylandrost-4-en-17β-yl 3′-sulfamoylphenyl sulfonate]
- IC50 [4, 6]: 2300 nM
- Solubility in Water [2]: About 6 mg/l
- Decomposition in % ([3]; pH = 1, 37° C., 1 h): 6%
- Decomposition in % ([3]; pH = 1, 37° C., 2 h): 11%
- Decomposition in % ([3]; pH = 1, 37° C., 24 h): 71%
- Decomposition in % ([3]; pH = 7.4, 37° C., 1 h): 6%
- Decomposition in % ([3]; pH = 7.4, 37° C., 2 h): 11%
- Decomposition in % ([3]; pH = 7.4, 37° C., 24 h): 70%
- IC50 [5, 7]: 120 nM

Compound: C[C@]12CC[C@@H]3c4ccc(O)cc4CC[C@H]3[C@@H]1CC[C@@H]2OS(=O)(=O)c1cccc(S(N)(=O)=O)c1 [3-Hydroxyestra-1,3,5(10)-trien-17β-yl 3′-sulfamoylphenyl Sulfonate]
- Decomposition in % [1]: 4%
- IC50 [4, 6]: 1700 nM
- solubility [2]: 3 µg/mL
- Decomposition in % ([3]; pH = 1, 37° C., 1 h): 7%
- Decomposition in % ([3]; pH = 1, 37° C., 2 h): 14%
- Decomposition in % ([3]; pH = 1, 37° C., 24 h): 80%
- Decomposition in % ([3]; pH = 7.4, 37° C., 1 h): 6%
- Decomposition in % ([3]; pH = 7.4, 37° C., 2 h): 13%
- Decomposition in % ([3]; pH = 7.4, 37° C., 24 h): 84%
- IC50 [5, 7]: 81 nM
